Source: PMC6154319, “Intestinal Transport Characteristics and Metabolism of C-Glucosyl Dihydrochalcone, Aspalathin” (Molecules : A Journal of Synthetic Chemistry and Natural …, 2017)
Marks after values point to notes of the source that are not given here.

Key:
[1] = Kinetic solubility assay (miniaturised shake flask); assay type: physicochemical; settings: 2 h, 25 °C, 2% DMSO
Method: The kinetic solubility assay was performed using a miniaturised shake flask method. A 10 mM stock solution of aspalathin was used to prepare calibration standards (10–220 µM) in dimethyl sulphoxide (DMSO), and to spike (1:50) duplicate aqueous samples of phosphate buffered saline (pH 6.5), 0.01 M HCl (pH 2), and FaSSIF (pH 6.5), with a final DMSO concentration of 2%. After shaking for 2 h at 25 °C, the solutions were filtered (multiscreen filter plates, 0.45 µm low-binding, hydrophilic polytetrafluoroethylene (PTFE), Merck) and analysed by means of HPLC-DAD (Agilent 1200 Rapid Resolution HPLC; Agilent Technologies, Inc., Santa Clara, CA, USA). Best fit calibration curves were constructed using the calibration standards, which were used to determine the solubility of the aqueous samples [43].

[2] = Acute mouse study, metabolite identification in blood and urine by LC-MS/MS; assay type: in vivo; settings: oral 50 mg/kg
Method: An acute mouse study was performed under ethical approval from the Ethics Committee for Research on Animals (ECRA) of the South African Medical Research Council (Ref:07/13). Three 8-week old male C57.BKS mice, obtained from the Primate Unit of the South African Medical Research Council (Tygerberg, South Africa), were housed individually in polycarbonate cages with wired lids and kept in a controlled environment of 23–24 °C, 50% humidity, and a 12 h light/dark cycle. Prior to the study, urine was collected from the fasting mice overnight in a metabolic cage. Baseline fasted blood was collected via tail snip into a heparin tube, snap frozen in liquid nitrogen, and stored at −80 °C. Each mouse received a single dose of synthetic aspalathin (50 mg/kg body weight) dissolved in phosphate-buffered saline (PBS) (5 mg/mL) via orogastric gavage. Blood samples were collected and handled as described for fasting at time 0 (pre-gavage), and 1, 2, 4, 6, and 8 h post-gavage. All the samples were collected into the same heparin tube and kept on ice during the experiment. Urine was collected over the 8-h post-gavage monitoring period and the samples were stored at −80 °C until analysis.
The frozen whole blood samples, as well as the samples incubated with microsomes and controls, were thawed, extracted by protein precipitation using 0.1% formic acid (FA) in acetonitrile, centrifuged and filtered through 0.22 µm polyvinylidene difluoride (PVDF) filters (Merck Millipore, Frankfurter Straße, Darmstadt, Germany). Frozen whole urine samples were thawed and diluted 5 times in 0.1% aqueous FA. Samples were analysed by LC-MS/MS on an Agilent 1200 Rapid Resolution HPLC system (600 bar, Agilent Technologies) coupled to a 4000 QTRAP® (AB Sciex, Framingham, MA, USA) equipped with a Turbo V™ […]. Filtered samples (10 μL), stored on a sample tray maintained at 8 °C, were injected on a Gemini C6-Phenyl column (150 × 2.0 mm, 3 µm particles) (Phenomenex, Santa Clara, CA, USA) at 40 °C. […]

GLUT2 = target: T1, GLUT2 (Homo sapiens, UniProt P11168); settings: aspalathin 100 µM; 100 µM phloretin (GLUT2)
T1 sequence (P11168 1-524): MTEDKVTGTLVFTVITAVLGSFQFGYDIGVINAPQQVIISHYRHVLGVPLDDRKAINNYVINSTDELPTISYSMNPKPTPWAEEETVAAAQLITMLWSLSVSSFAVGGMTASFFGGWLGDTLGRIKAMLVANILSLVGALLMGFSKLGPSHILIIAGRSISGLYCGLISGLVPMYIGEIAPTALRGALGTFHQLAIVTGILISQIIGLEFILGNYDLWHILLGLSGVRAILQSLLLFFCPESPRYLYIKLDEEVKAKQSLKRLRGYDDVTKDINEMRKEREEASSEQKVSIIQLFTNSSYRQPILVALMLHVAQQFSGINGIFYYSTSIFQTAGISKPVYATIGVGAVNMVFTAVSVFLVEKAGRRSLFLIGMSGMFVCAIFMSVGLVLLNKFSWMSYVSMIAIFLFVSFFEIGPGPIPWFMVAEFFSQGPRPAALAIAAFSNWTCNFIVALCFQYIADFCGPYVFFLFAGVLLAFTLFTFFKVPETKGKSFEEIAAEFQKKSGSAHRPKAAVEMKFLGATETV

SMILES: O=C(CCc1ccc(O)c(O)c1)c1c(O)cc(O)c([C@@H]2O[C@H](CO)[C@@H](O)[C@H](O)[C@H]2O)c1O [Aspalathin]
- Kinetic solubility at pH 2 ([1]; 0.01 M HCl (pH 2)): 153 µM
- Kinetic solubility in FaSSIF at pH 6.5 ([1]; FaSSIF (pH 6.5)): 119 µM
- Kinetic solubility at pH 6.5 ([1]; phosphate buffered saline (pH 6.5)): 123 µM
- detection of aspalathin and metabolites in blood ([2]; blood 1-8 h post-gavage): No aspalathin, nor any of its metabolites, could be detected
- number of aspalathin metabolites detected in the urine ([2]; urine over 8 h): 13
- Papp a-b + Inhibitor (phloretin) (GLUT2): 1.67 ± 0.43 ^c ×10^−6 cm/s
- Papp b-a + Inhibitor (phloretin) (GLUT2): 1.95 ± 1.1 ^c ×10^−6 cm/s
